≈ marks a conversion by molar mass, not a printed value. Calls of active or inactive are those of the source. No cut-off for these calls is given here.
Tests used:
THP-1 [1] = assay: Antiinflammatory activity in human PMA-stimulated THP1 cells assessed as inhibition of LPS-induced TNFalpha production at 10 uM treated 30 mins before LPS challenge measured after 24 hrs by ELISA; type: functional
THP-1 [2] = assay: Antiinflammatory activity in human PMA-stimulated THP1 cells assessed as inhibition of LPS-induced IL-6 production at 10 uM treated 30 mins before LPS challenge measured after 24 hrs by ELISA; type: functional
Staphylococcus aureus [3] = assay: Antibacterial activity against Staphylococcus aureus by agar well diffusion method; type: functional
Bacillus subtilis [4] = assay: Antibacterial activity against Bacillus subtilis by agar well diffusion method; type: functional
Escherichia coli [5] = assay: Antibacterial activity against Escherichia coli by agar well diffusion method; type: functional
Salmonella typhimurium [6] = assay: Antibacterial activity against Salmonella typhimurium by agar well diffusion method; type: functional, Salmonella enterica subsp. enterica serovar Typhimurium; conditions: Salmonella enterica
Candida albicans [7] = assay: Antifungal activity against Candida albicans by agar well diffusion method; type: functional
Aspergillus niger [8] = assay: Antifungal activity against Aspergillus niger by agar well diffusion method; type: functional
Fusarium solani [9] = assay: Antifungal activity against Fusarium solani by agar well diffusion method; type: functional
Aspergillus flavus [10] = assay: Antifungal activity against Aspergillus flavus by agar well diffusion method; type: functional
Staphylococcus aureus [11] = assay: Antibacterial activity against Staphylococcus aureus up to 200 ug/ml by agar well diffusion method; type: functional, organism-based
Bacillus subtilis [12] = assay: Antibacterial activity against Bacillus subtilis up to 200 ug/ml by agar well diffusion method; type: functional, organism-based
Escherichia coli [13] = assay: Antibacterial activity against Escherichia coli up to 200 ug/ml by agar well diffusion method; type: functional, organism-based
Salmonella typhimurium [14] = assay: Antibacterial activity against Salmonella typhimurium up to 200 ug/ml by agar well diffusion method; type: functional, organism-based; conditions: Salmonella enterica subsp. enterica serovar Typhimurium
Candida albicans [15] = assay: Antifungal activity against Candida albicans up to 200 ug/ml by agar well diffusion method; type: functional, organism-based
Aspergillus niger [16] = assay: Antifungal activity against Aspergillus niger up to 200 ug/ml by agar well diffusion method; type: functional, organism-based
Fusarium solani [17] = assay: Antifungal activity against Fusarium solani up to 200 ug/ml by agar well diffusion method; type: functional, organism-based
Aspergillus flavus [18] = assay: Antifungal activity against Aspergillus flavus up to 200 ug/ml by agar well diffusion method; type: functional, organism-based

Row | SMILES | MIC (Staphylococcus aureus [3]) [µg/mL] | MIC (Bacillus subtilis [4]) [µg/mL] | MIC (Escherichia coli [5]) [µg/mL] | MIC (Salmonella typhimurium [6]) [µg/mL] | MIC (Candida albicans [7]) [µg/mL] | MIC (Aspergillus niger [8]) [µg/mL] | MIC (Fusarium solani [9]) [µg/mL] | MIC (Aspergillus flavus [10]) [µg/mL] | inhibition at 10 µM (THP-1 [1]) [%] | inhibition at 10 µM (THP-1 [2]) [%] | Activity (Staphylococcus aureus [11]) | Activity (Bacillus subtilis [12]) | Activity (Escherichia coli [13]) | Activity (Salmonella typhimurium [14]) | Activity (Candida albicans [15]) | Activity (Aspergillus niger [16]) | Activity (Fusarium solani [17]) | Activity (Aspergillus flavus [18])
1 | O=S(=O)(Nc1ccc(-c2cc(Nc3cccc(C(F)(F)F)c3)ncn2)cc1)c1ccccc1OC(F)(F)F | 10 (≈ 18 µM) | 10 (≈ 18 µM) | 20 (≈ 36.1 µM) | 10 (≈ 18 µM) | 30 (≈ 54.1 µM) | 60 (≈ 108 µM) | 20 (≈ 36.1 µM) | 20 (≈ 36.1 µM) | 0 | 0 | – | – | – | – | – | – | – | –
2 | Clc1ccc(COC(Cn2ccnc2)c2ccc(Cl)cc2Cl)c(Cl)c1 (centres undefined) [MICONAZOLE] | – | – | – | – | 20 (≈ 48.1 µM) | 15 (≈ 36 µM) | 15 (≈ 36 µM) | 20 (≈ 48.1 µM) | – | – | – | – | – | – | – | – | – | –
3 | N#Cc1ccc(NC(=O)Nc2ccc(-c3cc(Nc4cccc(C(F)(F)F)c4)ncn3)cc2)cc1 | – | – | – | – | 80 (≈ 169 µM) | 90 (≈ 190 µM) | 75 (≈ 158 µM) | 80 (≈ 169 µM) | 61 | 80 | inactive | inactive | inactive | inactive | – | – | – | –
4 | N#Cc1cccc(S(=O)(=O)Nc2ccc(-c3cc(Nc4cccc(C(F)(F)F)c4)ncn3)cc2)c1 | 40 (≈ 80.7 µM) | 65 (≈ 131 µM) | 25 (≈ 50.5 µM) | 45 (≈ 90.8 µM) | 55 (≈ 111 µM) | 20 (≈ 40.4 µM) | 20 (≈ 40.4 µM) | 35 (≈ 70.6 µM) | 0 | 12 | – | – | – | – | – | – | – | –
5 | CC(C)c1ccc(NC(=O)Nc2ccc(-c3cc(Nc4cccc(C(F)(F)F)c4)ncn3)cc2)cc1 | 25 (≈ 50.9 µM) | 40 (≈ 81.4 µM) | 20 (≈ 40.7 µM) | 40 (≈ 81.4 µM) | – | – | – | – | 71 | 90 | – | – | – | – | inactive | inactive | inactive | inactive
6 | Cc1ccc(F)cc1S(=O)(=O)Nc1ccc(-c2cc(Nc3cccc(C(F)(F)F)c3)ncn2)cc1 | 15 (≈ 29.9 µM) | 10 (≈ 19.9 µM) | 15 (≈ 29.9 µM) | 15 (≈ 29.9 µM) | 90 (≈ 179 µM) | – | 90 (≈ 179 µM) | 90 (≈ 179 µM) | 48 | 56 | – | – | – | – | – | inactive | – | –
7 | CC1(C)OB(c2ccc([N+](=O)[O-])cc2)OC1(C)C | – | – | – | – | 90 (≈ 361 µM) | – | – | – | 0 | 0 | inactive | inactive | inactive | inactive | – | inactive | inactive | inactive
8 | Cc1cccc(S(=O)(=O)Nc2ccc(-c3cc(Nc4cccc(C(F)(F)F)c4)ncn3)cc2)c1 | 90 (≈ 186 µM) | – | 90 (≈ 186 µM) | 90 (≈ 186 µM) | – | – | – | – | 14 | 25 | – | inactive | – | – | inactive | inactive | inactive | inactive

The next lines start with results.

Row | MIC (Staphylococcus aureus [3]) [µg/mL] | MIC (Bacillus subtilis [4]) [µg/mL] | MIC (Escherichia coli [5]) [µg/mL] | MIC (Salmonella typhimurium [6]) [µg/mL] | MIC (Candida albicans [7]) [µg/mL] | MIC (Aspergillus niger [8]) [µg/mL] | MIC (Fusarium solani [9]) [µg/mL] | MIC (Aspergillus flavus [10]) [µg/mL] | SMILES | inhibition at 10 µM (THP-1 [1]) [%] | inhibition at 10 µM (THP-1 [2]) [%] | Activity (Staphylococcus aureus [11]) | Activity (Bacillus subtilis [12]) | Activity (Escherichia coli [13]) | Activity (Salmonella typhimurium [14]) | Activity (Candida albicans [15]) | Activity (Aspergillus niger [16]) | Activity (Fusarium solani [17]) | Activity (Aspergillus flavus [18])
9 | – | – | – | – | 15 (≈ 28.1 µM) | 25 (≈ 46.9 µM) | 15 (≈ 28.1 µM) | 15 (≈ 28.1 µM) | FC(F)(F)c1cccc(Nc2cc(-c3ccc(NC(=S)Nc4ccccc4C(F)(F)F)cc3)ncn2)c1 | 68 | 82 | inactive | inactive | inactive | inactive | – | – | – | –
10 | 35 (≈ 73 µM) | 30 (≈ 62.6 µM) | 30 (≈ 62.6 µM) | 30 (≈ 62.6 µM) | 55 (≈ 115 µM) | 35 (≈ 73 µM) | 20 (≈ 41.7 µM) | 20 (≈ 41.7 µM) | COc1cccc(NC(=O)Nc2ccc(-c3cc(Nc4cccc(C(F)(F)F)c4)ncn3)cc2)c1 | 11 | 18 | – | – | – | – | – | – | – | –
11 | 90 (≈ 188 µM) | 90 (≈ 188 µM) | – | – | 40 (≈ 83.8 µM) | 75 (≈ 157 µM) | 60 (≈ 126 µM) | 30 (≈ 62.8 µM) | Cc1ccc(NC(=O)Nc2ccc(-c3cc(Nc4cccc(C(F)(F)F)c4)ncn3)cc2)cc1C | 16 | 27 | – | – | inactive | inactive | – | – | – | –
12 | 90 (≈ 179 µM) | – | – | – | 90 (≈ 179 µM) | – | – | – | O=C(Nc1ccc(-c2cc(Nc3cccc(C(F)(F)F)c3)ncn2)cc1)Nc1cccc(Cl)c1F | 78 | 96 | – | inactive | inactive | inactive | – | inactive | inactive | inactive
13 | 25 (≈ 48.3 µM) | 40 (≈ 77.3 µM) | 35 (≈ 67.6 µM) | 80 (≈ 155 µM) | 25 (≈ 48.3 µM) | 35 (≈ 67.6 µM) | 20 (≈ 38.7 µM) | 20 (≈ 38.7 µM) | O=C(Nc1ccc(-c2cc(Nc3cccc(C(F)(F)F)c3)ncn2)cc1)Nc1cccc(C(F)(F)F)c1 | 28 | 40 | – | – | – | – | – | – | – | –
